# Reference: patent publication US5641781A, “Topical ophthalmic composition comprising a 2-[4-(azolylbutyl)piperazinylmethyl]benzimidazole derivative, in particular for the treatment of allergic conjunctivitis” (Laboratorios Del Dr. Esteve, S.A., priority 1995, dated 1997)
# System: guinea pig conjunctiva
# Assay: Microvascular permeability in guinea pig conjunctiva induced by histamine (extravasation of Evans blue dye), topical ocular administration
# Assay type: in vivo, guinea pig (male VAF Dunkin/Hartley)
# Details: for % change (degree of permeability): topical, vs vehicle; for ED50 (concentration producing 50% inhibition of vascular permeability): Table 3
# Method: The ocular antihistaminic topical effect of the products which form the subject of the present invention was evaluated by means of a model of microvascular permeability in guinea pig conjunctiva, induced by histamine. In this animal model of ocular antiallergic activity, the power, the fifty percent effective dose and the duration of action are measured.
# Microvascular Permeability in Guinea Pig Conjunctiva Induced by Histamine (Extravasation of Evans Blue Dye)
# Male VAF Dunkin/Hartley guinea pigs (6 per group) are injected intravenously, into the marginal vein of the ear, with 1.0 ml of Evans blue (1.0 mg/ml). Approximately 15 minutes after injection of the dye, 20 μl of the appropriate concentration of the compound of Example 1 or of the vehicle are applied topically to an eye of each of the animals. 2 minutes, 30 minutes and 6 hours after the topical application, the guinea pigs are anaesthetized and histamine (300 ng/10 μl) is administered to them subconjunctivally. Thirty minutes later the animals are sacrificed by inhalation of CO2 and the area of extravasation of the Evans blue is measured. The area of the blue dye is multiplied by the intensity of the colour, graded from 1 to 6, in order to produce a value of permeability for each animal (Yauni et al., Int. Arch. Allergy Immunol., 1993, 101, 102-106). The values obtained by the groups treated are then compared with those obtained with the group treated with the vehicle using Dunnett's "t" test (Dunnett C. W. "A multiple comparison procedure for comparing treatments with a control", J. Am Star. Assoc 1955, 50, 1096-1121)
# This inhibition is observed in a range of concentrations from 0.1% to 0.0001% weight/volume.
structure (smiles),measurement,setting,value
CCOCCn1c(CN2CCN(CCCCn3cccn3)CC2)nc2ccccc21 [Example 1],% change (degree of permeability),"0.00001 % (w/v), 30'",-6%
same,% change (degree of permeability),"0.00001 % (w/v), 6 h",-3%
same,% change (degree of permeability),"0.0001 % (w/v), 30'",-45%
same,% change (degree of permeability),"0.0001 % (w/v), 6 h",-36%
same,% change (degree of permeability),"0.001 % (w/v), 2'",-41%
same,% change (degree of permeability),"0.001 % (w/v), 30'",-66%
same,% change (degree of permeability),"0.001 % (w/v), 6 h",-66%
same,% change (degree of permeability),"0.01 % (w/v), 2'",-66%
same,% change (degree of permeability),"0.01 % (w/v), 30'",-85%
same,% change (degree of permeability),"0.01 % (w/v), 6 h",-91%
same,% change (degree of permeability),"0.1 % (w/v), 2'",-75%
same,% change (degree of permeability),"0.1 % (w/v), 30'",-100%
same,% change (degree of permeability),"0.1 % (w/v), 6 h",-100%
same,ED50 (concentration producing 50% inhibition of vascular permeability),2',0.0024 % w/v
same,ED50 (concentration producing 50% inhibition of vascular permeability),30',0.00035 % w/v
same,ED50 (concentration producing 50% inhibition of vascular permeability),6 h,0.00043 % w/v
same,ED50 (concentration which produces a 50% inhibition of the vascular permeability),at 2 minutes,0.0024 w/v
same,ED50 (concentration which produces a 50% inhibition of the vascular permeability),at 30 minutes,0.00035 w/v
same,ED50 (concentration which produces a 50% inhibition of the vascular permeability),at 8 hours,0.00043 w/v
same,antihistaminic activity and duration of action (in words),ocular topical administration,powerful antihistaminic activity accompanied by an exceptionally long duration of action
same,inhibition of vascular permeability induced by histamine (in words),ocular topical administration,"inhibits, significantly and in a dose-dependent manner"
